Patent US20230149358A1, “COMBINATION CANCER THERAPY WITH PENTAAZA MACROCYCLIC RING COMPLEX AND HORMONE THERAPY AGENT” (Galera Labs, LLC, priority 2020, published 2023)
“Also recorded” adds a separate entry of the source.

Tests used:
MCF7-Cispl-R cells [1] = test: SOX2 and OCT4 levels, MCF7-Cispl-R cells; format: cell-based, human; settings: MCF7-Cispl-R treated with GC4419; data not shown
Description: (§1) Aberrant HIF2α levels promote lineage plasticity, leading to chemoresistance and metastasis. […] Thus, MCF7 cells were selected for cisplatin resistance (Cispl-R) by 3 months of exposure to 5 μM Cispl.

MCF7-MnSOD^K68Q cells = test: Ki-67 staining, MCF7-MnSOD^K68Q cells; format: cell-based, human; settings: 5 μM GC4419 and/or 1 μM 4-hydroxy-Tam for 5 days
Description: MCF7-MnSOD^K68Q cells (in FIGS. 17a and 17b) and T47D-MnSOD^K68Q cells (in FIGS. 17c and 17d) were treated with 5 μM GC4419 and/or 1 μM 4-hydroxy-Tam for 5 days, and then stained for Ki-67 as well as DAPI. Quantifications of average Ki-67 intensity are shown in the bar graphs. In FIG. 17e, MCF7 and MCF7-HTR cells were implanted into both hind limbs of nude mice and tumor volumes were measured every 3 days for 6 weeks and the number of tumors that successfully implanted versus the total number of mice infected with MCF7 and MCF7-HTR as well as the average tumor weight and tumor size are shown. Representative images are shown. All experiments were done in triplicate. Error bars represent ±1 SEM. ***p<0.001.
Cells seeded on glass coverslips were fixed in 4% paraformaldehyde and then blocked with 1% BSA and 10% normal goat serum in 1×PBS. Cells were incubated with anti-Ki-67 (c-bioscience) antibody in 1×PBS followed by incubation with goat anti-rabbit IgG conjugated with Alexa Fluor 647 (Invitrogen) in 1×PBS with 5% goat serum. Cells were washed in 1×PBS, mounted, and imaged with a fluorescence microscope. Fluorescence images were captured using a laser scanning confocal microscope (Nikon A1R). The paired images in all the figures were collected at the same gain and offset settings. Post-collection processing was applied uniformly to all paired images.

MCF-7-MnSOD^K68Q cells = test: Clonogenic cell survival after 5 Gy ionizing radiation, MCF-7-MnSOD^K68Q cells; format: cell-based, human; settings: 5 μM GC4419 for 5 days, then 5 Gy ionizing radiation
Description: FIGS. 30a-30b are plots showing that expression of MnSOD^K68Q induces ionizing radiation resistance (IRR) in MCF7 cells. […] All experiments were done in triplicate. Error bars represent±1 SEM. ***p<0.001. Data were analyzed by a t-test.
To determine if the MnSOD-K68-Ac-ROS axis plays a role in IRR, it was hypothesized that MnSOD acetylation might play a role in how tumor cells are reprogrammed to produce a IRR phenotype. To address this idea, an established tumor cell line MCF-7 was infected with lenti-MnSOD^K68Q to induce MnSOD^K68Q expression, which was validated. MCF-7-MnSOD^WT and MCF-7-MnSOD^K68Q cells were treated without or with 5 Gy of IR.

[2] = tested on: Tam resistant as well as loss of Sirt3 tumor cell lines; test: In vitro Tam resistance, Tam resistant and loss of Sirt3 tumor cell lines; format: cell-based; settings: data not shown
T47D-HTR cells = test: Clonogenic cell survival, hydroxy-Tam-resistant T47D-HTR cells; format: cell-based, human; settings: 5 μM GC4419 for 5 days
Description: Clonogenic cell survival assay. For the clonogenic survival analysis, exponentially growing cells were replated using appropriate dilutions, and clonogenic survival was evaluated after 14 days in regular growth medium. Cells were stained with crystal violet, and colonies of >50 cells were counted and utilized to calculate clonogenic survival^46.
To test parameters indicative of oxidative stress, a clonogenic assay with hydroxy-Tam and antioxidant treatments was performed. Cells were plated at a density of 50,000 cells per 60-mm dish and treated with 1 μM hydroxy-Tam (Sigma) and 5 μM GC4419 (Galera Therapeutics) for a total of 120 h. This protocol was repeated with a fresh medium change every 24 h for 5 days. On day 6, the cells were trypsinized, counted, and replated in control medium using appropriate dilutions, and clonogenic survival was evaluated.

MCF7-Cispl-R cells [3] = test: Cell ROS levels, MCF7-Cispl-R cells; format: cell-based, human; settings: GC4419 exposure; data not shown
Description: FIGS. 27a-27c are an image and graphs showing that MnSOD-Ac-K68/HIF2α dysregulation directs PanR (resistance to cancer therapeutics). […] In FIG. 27b, ROS was measured in MCF7-Cispl-R cells, compared with MCF7 cells, using an Amplex Red assay. In FIG. 27c, MCF7 and MCF7-MnSOD^K68Q cells were measured by clonogenic cell survival assays, without and with Cispl exposure, and infected with scrambled (C) or HIF2α shRNA. All experiments were done in triplicate. Error bars are ±1 SEM. * p<0.05.
as §1

[Cl][Mn][Cl].c1cc2nc(c1)CN[C@H]1CCCC[C@@H]1NCCN[C@H]1CCCC[C@@H]1NC2 [GC4419]
SOX2 and OCT4 levels (MCF7-Cispl-R cells [1]): decreased SOX2 and OCT4 levels
Ki-67 staining (MCF7-MnSOD^K68Q cells): reversed the increase in Ki-67 IHC staining; also recorded: decreased Ki-67 levels
ionizing radiation resistance (IRR) phenotype, clonogenic cell survival (MCF-7-MnSOD^K68Q cells): reversed the IRR phenotype
Tam resistance in vitro [2]: reverses Tam resistance
sensitivity to hydroxy-Tam (clonogenic cell survival) (T47D-HTR cells): became sensitive to hydroxy-Tam
cell ROS levels (MCF7-Cispl-R cells [3]): decreased cell ROS levels
